Experimental data reported in ChEMBL document CHEMBL3734692, “Design and synthesis of 2-oxindole based multi-targeted inhibitors of PDK1/Akt signaling pathway for the treatment of glioblastoma multiforme” (Eur J Med Chem, 2015).
Active and inactive are the calls of the source. No cut-off for these calls is given here.

Key:
[1] = target: Ribosomal protein S6 kinase alpha-1 (Homo sapiens) (UniProt Q15418); experiment: Inhibition of RSK1 (unknown origin) at 1 uM by selectscreen kinase profiling assay in presence of ATP
Chain of Ribosomal protein S6 kinase alpha-1 (Homo sapiens) (Q15418 whole entry): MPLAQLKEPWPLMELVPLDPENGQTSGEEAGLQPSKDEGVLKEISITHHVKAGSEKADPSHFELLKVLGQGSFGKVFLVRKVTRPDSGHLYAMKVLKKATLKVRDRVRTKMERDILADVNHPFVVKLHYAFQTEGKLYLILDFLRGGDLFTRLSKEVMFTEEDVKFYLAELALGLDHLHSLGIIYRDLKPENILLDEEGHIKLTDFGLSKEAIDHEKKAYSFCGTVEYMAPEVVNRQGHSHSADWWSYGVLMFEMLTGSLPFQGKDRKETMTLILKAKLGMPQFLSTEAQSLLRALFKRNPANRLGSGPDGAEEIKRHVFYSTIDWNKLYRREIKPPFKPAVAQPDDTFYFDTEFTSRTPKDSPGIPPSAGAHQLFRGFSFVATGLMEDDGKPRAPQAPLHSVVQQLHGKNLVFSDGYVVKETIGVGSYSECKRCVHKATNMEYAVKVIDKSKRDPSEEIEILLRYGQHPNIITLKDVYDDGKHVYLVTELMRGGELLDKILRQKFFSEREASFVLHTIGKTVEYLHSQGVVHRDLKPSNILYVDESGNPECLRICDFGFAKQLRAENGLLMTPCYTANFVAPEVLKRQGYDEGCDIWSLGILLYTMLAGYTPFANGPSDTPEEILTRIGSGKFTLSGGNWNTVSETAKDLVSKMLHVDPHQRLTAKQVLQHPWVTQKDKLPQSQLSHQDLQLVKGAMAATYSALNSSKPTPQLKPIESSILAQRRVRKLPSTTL

ASPC1 = experiment: Cytotoxicity against human AsPC1 cells assessed as cell viability 10 uM after 72 hrs by cell counting analysis relative to control; format: functional
[2] = target: Aurora kinase A (Homo sapiens) (UniProt O14965); experiment: Inhibition of AURKA (unknown origin) at 1 uM by selectscreen kinase profiling assay in presence of ATP
Chain of Aurora kinase A (Homo sapiens) (O14965 whole entry): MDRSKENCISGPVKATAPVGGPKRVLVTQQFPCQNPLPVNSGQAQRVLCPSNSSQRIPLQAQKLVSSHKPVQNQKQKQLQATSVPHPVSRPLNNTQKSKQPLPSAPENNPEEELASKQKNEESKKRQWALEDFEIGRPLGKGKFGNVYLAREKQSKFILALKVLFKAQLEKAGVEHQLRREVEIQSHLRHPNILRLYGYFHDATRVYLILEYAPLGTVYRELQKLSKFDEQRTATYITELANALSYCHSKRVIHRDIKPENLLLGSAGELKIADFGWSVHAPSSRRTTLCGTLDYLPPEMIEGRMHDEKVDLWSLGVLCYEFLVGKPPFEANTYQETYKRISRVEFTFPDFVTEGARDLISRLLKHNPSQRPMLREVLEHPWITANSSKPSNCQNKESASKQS

[3] = Induction of apoptosis in human ANGM-CSS cells assessed as live cells at 1 uM after 7 days by annexin V-FITC/7-AAD dual staining based cell analysis (reference value: 92.21%); format: functional
[4] = Antiproliferative activity against human ANGM-CSS cells assessed as inhibition of cell growth after 120 hrs by WST1 assay; format: functional
ANGM-CSS [5] = experiment: Induction of human GSC differentiation derived from ANGM-CSS cells assessed as up regulation of olig mRNA expression at 1 uM after 7 days by RT-PCR analysis; format: functional, cell-based
[6] = target: Rho-associated protein kinase 2 (Homo sapiens) (UniProt O75116); experiment: Inhibition of ROCK2 (unknown origin) at 1 uM by selectscreen kinase profiling assay in presence of ATP
[7] = target: T1, AMP-activated protein kinase, AMPK (Homo sapiens) (UniProt P54646+O43741+P54619+Q9UGJ0+Q9Y478+Q13131+Q9UGI9); experiment: Inhibition of AMPK A1/B1/G1 (unknown origin) at 1 uM by selectscreen kinase profiling assay in presence of ATP; format: protein-complex assay
[8] = target: Tyrosine-protein kinase Lck (Homo sapiens) (UniProt P06239); experiment: Inhibition of LCK (unknown origin) at 1 uM by selectscreen kinase profiling assay in presence of ATP
[9] = target: Tyrosine-protein kinase ABL1 (Homo sapiens) (UniProt P00519); experiment: Inhibition of ABL1 (unknown origin) at 1 uM by selectscreen kinase profiling assay in presence of ATP
ANGM-CSS [10] = experiment: Antiproliferative activity against human GSC derived from ANGM-CSS cells after 7 days by MTS assay; format: functional, cell-based
[11] = target: T2, 3-phosphoinositide-dependent protein kinase 1 (Homo sapiens, UniProt O15530); experiment: Inhibition of PDK1 (unknown origin) in presence of 25 uM ATP incubated for 1 hr by Z'Lyte assay
T2 sequence (O15530 whole entry): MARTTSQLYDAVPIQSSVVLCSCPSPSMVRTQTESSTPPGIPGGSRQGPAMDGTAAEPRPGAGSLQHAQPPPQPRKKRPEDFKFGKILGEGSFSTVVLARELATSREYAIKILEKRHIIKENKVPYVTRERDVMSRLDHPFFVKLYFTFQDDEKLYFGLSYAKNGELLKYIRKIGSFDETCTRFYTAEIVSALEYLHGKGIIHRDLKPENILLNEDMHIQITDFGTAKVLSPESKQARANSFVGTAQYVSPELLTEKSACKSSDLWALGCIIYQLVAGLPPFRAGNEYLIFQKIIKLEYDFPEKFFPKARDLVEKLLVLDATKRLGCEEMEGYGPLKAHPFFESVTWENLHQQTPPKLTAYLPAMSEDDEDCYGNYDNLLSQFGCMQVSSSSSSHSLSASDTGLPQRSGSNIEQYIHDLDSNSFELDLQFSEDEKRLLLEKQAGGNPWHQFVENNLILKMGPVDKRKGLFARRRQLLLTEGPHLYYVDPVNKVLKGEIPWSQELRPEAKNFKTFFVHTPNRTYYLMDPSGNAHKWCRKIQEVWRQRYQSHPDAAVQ

U-118-MG = experiment: Antiproliferative activity against human U118MG cells assessed as inhibition of cell growth after 72 to 144 hrs by WST1 assay; format: functional, cell-based
[12] = target: Inhibitor of nuclear factor kappa-B kinase subunit alpha (Homo sapiens) (UniProt O15111); experiment: Inhibition of IKKalpha (unknown origin) at 1 uM by selectscreen kinase profiling assay in presence of ATP
Chain of Inhibitor of nuclear factor kappa-B kinase subunit alpha (Homo sapiens) (O15111 whole entry): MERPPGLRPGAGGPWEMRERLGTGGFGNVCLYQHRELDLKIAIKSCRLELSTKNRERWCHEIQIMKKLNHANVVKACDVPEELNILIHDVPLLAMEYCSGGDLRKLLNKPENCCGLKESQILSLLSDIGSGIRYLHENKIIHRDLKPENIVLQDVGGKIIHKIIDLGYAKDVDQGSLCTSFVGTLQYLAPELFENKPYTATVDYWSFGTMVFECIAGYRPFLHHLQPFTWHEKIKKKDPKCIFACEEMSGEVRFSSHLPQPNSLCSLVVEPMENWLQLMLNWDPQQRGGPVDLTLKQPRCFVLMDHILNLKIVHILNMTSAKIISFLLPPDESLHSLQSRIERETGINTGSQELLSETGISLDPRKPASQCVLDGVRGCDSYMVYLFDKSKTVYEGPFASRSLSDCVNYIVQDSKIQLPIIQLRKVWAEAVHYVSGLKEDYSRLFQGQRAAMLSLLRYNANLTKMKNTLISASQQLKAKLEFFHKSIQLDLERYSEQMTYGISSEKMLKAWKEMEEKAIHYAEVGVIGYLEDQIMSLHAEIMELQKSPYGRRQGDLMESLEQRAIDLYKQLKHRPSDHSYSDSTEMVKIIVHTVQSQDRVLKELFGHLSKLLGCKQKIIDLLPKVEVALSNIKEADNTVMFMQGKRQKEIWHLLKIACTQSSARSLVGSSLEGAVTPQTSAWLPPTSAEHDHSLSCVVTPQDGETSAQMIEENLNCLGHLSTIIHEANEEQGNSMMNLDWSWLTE

[13] = Induction of apoptosis in human GSC derived from ANGM-CSS cells assessed as late apoptotic cells at 1 uM after 7 days by annexin V-FITC/7-AAD dual staining based cell analysis (reference value: 2.51%); format: functional
[14] = target: Dual specificity mitogen-activated protein kinase kinase 1 (Homo sapiens) (UniProt Q02750); experiment: Inhibition of MEK1 (unknown origin) at 1 uM by selectscreen kinase profiling assay in presence of ATP
[15] = target: G protein-coupled receptor kinase 5 (Homo sapiens) (UniProt P34947); experiment: Inhibition of GRK5 (unknown origin) at 1 uM by selectscreen kinase profiling assay in presence of ATP
Chain of G protein-coupled receptor kinase 5 (Homo sapiens) (P34947 whole entry, looked up): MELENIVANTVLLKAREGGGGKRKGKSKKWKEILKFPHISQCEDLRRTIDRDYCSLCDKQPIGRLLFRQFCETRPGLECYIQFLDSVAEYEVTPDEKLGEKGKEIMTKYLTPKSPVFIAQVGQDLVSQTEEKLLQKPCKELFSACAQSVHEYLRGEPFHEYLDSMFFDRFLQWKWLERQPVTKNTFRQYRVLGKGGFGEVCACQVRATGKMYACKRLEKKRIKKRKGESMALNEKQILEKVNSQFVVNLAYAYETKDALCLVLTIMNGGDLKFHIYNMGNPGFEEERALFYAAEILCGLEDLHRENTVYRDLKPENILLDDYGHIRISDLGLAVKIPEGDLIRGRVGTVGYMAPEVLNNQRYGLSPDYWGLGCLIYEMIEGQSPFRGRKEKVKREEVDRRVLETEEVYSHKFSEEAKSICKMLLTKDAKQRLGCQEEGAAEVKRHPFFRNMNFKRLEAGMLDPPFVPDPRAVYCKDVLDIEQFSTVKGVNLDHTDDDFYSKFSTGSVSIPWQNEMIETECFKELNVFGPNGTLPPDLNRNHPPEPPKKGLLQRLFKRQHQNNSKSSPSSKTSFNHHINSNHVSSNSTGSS

[16] = target: Tyrosine-protein kinase ITK/TSK (Homo sapiens) (UniProt Q08881); experiment: Inhibition of ITK (unknown origin) at 1 uM by selectscreen kinase profiling assay in presence of ATP
[17] = target: CDK9/cyclin T1 (Homo sapiens) (UniProt O60563+P50750); experiment: Inhibition of CDK9/cyclin T1 (unknown origin) at 1 uM by selectscreen kinase profiling assay in presence of ATP; format: protein-complex assay
[18] = target: Calcium/calmodulin-dependent protein kinase type II subunit alpha (Homo sapiens) (UniProt Q9UQM7); experiment: Inhibition of CAMK2alpha (unknown origin) at 1 uM by selectscreen kinase profiling assay in presence of ATP
Chain of Calcium/calmodulin-dependent protein kinase type II subunit alpha (Homo sapiens) (Q9UQM7 whole entry): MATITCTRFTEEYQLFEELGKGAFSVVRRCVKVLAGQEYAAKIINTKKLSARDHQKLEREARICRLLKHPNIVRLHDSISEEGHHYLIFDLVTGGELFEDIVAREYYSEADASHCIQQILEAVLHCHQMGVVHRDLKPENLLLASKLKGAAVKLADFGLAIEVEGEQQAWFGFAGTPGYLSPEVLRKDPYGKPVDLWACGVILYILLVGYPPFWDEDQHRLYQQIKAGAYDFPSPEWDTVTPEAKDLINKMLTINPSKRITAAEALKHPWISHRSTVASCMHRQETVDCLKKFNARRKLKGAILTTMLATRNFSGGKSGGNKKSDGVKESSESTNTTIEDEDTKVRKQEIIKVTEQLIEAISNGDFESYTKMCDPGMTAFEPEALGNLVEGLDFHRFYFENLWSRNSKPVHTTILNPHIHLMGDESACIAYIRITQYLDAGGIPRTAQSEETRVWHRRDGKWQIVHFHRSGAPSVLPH

[19] = target: Protein kinase C alpha type (Homo sapiens) (UniProt P17252); experiment: Inhibition of PKCalpha (unknown origin) at 1 uM by selectscreen kinase profiling assay in presence of ATP
[20] = target: T1, AMP-activated protein kinase, AMPK (Homo sapiens); experiment: Inhibition of AMPK A2/B1/G1 (unknown origin) at 1 uM by selectscreen kinase profiling assay in presence of ATP; format: protein-complex assay
[21] = target: Proto-oncogene tyrosine-protein kinase Src (Homo sapiens) (UniProt P12931); experiment: Inhibition of SRC (unknown origin) at 1 uM by selectscreen kinase profiling assay in presence of ATP
Chain of Proto-oncogene tyrosine-protein kinase Src (Homo sapiens) (P12931 2-536 limits assumed): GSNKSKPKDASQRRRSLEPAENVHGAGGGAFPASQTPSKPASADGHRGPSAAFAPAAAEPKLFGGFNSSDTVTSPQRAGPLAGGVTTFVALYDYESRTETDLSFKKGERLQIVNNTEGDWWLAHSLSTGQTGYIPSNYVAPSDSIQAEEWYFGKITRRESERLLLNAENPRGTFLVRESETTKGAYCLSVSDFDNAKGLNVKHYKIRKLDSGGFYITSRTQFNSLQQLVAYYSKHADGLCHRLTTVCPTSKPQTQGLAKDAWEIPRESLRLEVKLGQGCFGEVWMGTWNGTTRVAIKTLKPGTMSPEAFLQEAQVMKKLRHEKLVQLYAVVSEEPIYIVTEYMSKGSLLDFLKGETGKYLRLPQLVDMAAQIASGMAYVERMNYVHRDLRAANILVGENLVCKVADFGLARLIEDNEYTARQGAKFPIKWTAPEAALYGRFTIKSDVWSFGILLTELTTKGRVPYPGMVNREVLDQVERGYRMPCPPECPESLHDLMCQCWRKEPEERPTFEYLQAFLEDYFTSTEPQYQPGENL

[22] = target: Inhibitor of nuclear factor kappa-B kinase subunit beta (Homo sapiens) (UniProt O14920); experiment: Inhibition of IKKbeta (unknown origin) at 1 uM by selectscreen kinase profiling assay in presence of ATP
Chain of Inhibitor of nuclear factor kappa-B kinase subunit beta (Homo sapiens) (O14920 whole entry): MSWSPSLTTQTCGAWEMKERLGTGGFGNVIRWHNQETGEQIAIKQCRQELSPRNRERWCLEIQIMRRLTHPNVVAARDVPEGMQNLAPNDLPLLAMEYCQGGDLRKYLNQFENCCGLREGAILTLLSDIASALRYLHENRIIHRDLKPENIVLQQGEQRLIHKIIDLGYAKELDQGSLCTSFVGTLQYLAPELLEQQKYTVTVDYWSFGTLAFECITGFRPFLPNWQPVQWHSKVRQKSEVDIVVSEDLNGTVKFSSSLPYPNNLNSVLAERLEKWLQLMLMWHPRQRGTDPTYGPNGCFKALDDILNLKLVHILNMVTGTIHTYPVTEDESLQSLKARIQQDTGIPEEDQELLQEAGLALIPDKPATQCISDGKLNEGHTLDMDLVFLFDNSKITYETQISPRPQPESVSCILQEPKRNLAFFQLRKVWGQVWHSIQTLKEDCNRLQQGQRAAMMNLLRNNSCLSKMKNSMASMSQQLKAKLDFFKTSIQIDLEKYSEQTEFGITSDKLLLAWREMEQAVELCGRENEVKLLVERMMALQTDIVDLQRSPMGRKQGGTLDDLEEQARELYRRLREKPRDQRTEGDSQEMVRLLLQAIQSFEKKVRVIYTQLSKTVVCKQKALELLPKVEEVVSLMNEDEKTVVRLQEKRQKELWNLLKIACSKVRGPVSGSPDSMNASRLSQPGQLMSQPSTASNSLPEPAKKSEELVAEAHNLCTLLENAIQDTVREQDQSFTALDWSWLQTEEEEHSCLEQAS

[23] = target: T2, 3-phosphoinositide-dependent protein kinase 1; experiment: Inhibition of PDK1 (unknown origin) incubated for 1 hr by Z'Lyte assay
[24] = target: Casein kinase I isoform gamma-1 (Homo sapiens) (UniProt Q9HCP0); experiment: Inhibition of CK1gamma1 (unknown origin) at 1 uM by selectscreen kinase profiling assay in presence of ATP
[25] = target: Mitogen-activated protein kinase 14 (Homo sapiens) (UniProt Q16539); experiment: Inhibition of p38 alpha (unknown origin) at 1 uM by selectscreen kinase profiling assay in presence of ATP
[26] = Antiproliferative activity against human ANGM-CSS cells assessed as inhibition of cell growth after 144 hrs by WST1 assay; format: functional
[27] = target: cAMP-dependent protein kinase catalytic subunit alpha (Homo sapiens) (UniProt P17612); experiment: Inhibition of PRKACA (unknown origin) at 1 uM by selectscreen kinase profiling assay in presence of ATP

`COc1cc2c(cc1OC)CN(CC(=O)Nc1ccc3c(c1)/C(=C/c1cnc[nH]1)C(=O)N3)CC2` showed an inhibition [1] of 44%, an Activity (ASPC1) of 68.14% and an inhibition [2] of 37%. For the same molecule, the Activity [3] was 79.63%, the GI50 [4] was 12900 nM and the Activity (ANGM-CSS [5]) was “Active”. It also gave an inhibition [6] of -5%, an inhibition [7] of 42% and an inhibition [8] of 26%. For the same molecule, the inhibition [9] was 55%, the inhibition (ANGM-CSS [10]) was “Dose-dependent effect” and the IC50 [11] was 998 nM. The “growth inhibition (GI)” value (U-118-MG) was “Dose-dependent effect”, the inhibition [12] was 26% and the Activity [13] was 4.93%. For the same molecule, the inhibition [14] was 37%, the inhibition [15] was 10% and the inhibition [16] was -2%. It also gave an inhibition [17] of 9%, an inhibition [18] of 1% and an inhibition [19] of -2%. The inhibition [20] was 30%, the inhibition [21] was 27% and the inhibition [22] was 6%. The IC50 [23] was 980 nM, the inhibition [24] was -4% and the inhibition [25] was 4%. For the same molecule, the GI50 [26] was 3980 nM and the inhibition [27] was 3%.
